Earlier results as cited in patent US20080096857A1, “Photodynamic Therapy For The Treatment Of Hyperactive Sebaceous Gland Disorders Using Topically Applied Hydrophobic Green Porphyrins” (QLT Inc., priority 2004, published 2008).

Tested on: acne vulgaris
Conditions: topical ALA-PDT of acne vulgaris; J. Invest Dermatol 115:183-192, 2000

In the case of NCC(=O)CCC(=O)O [ALA, 5-aminolevulinic acid], the “adverse events during and after the treatment” value is listed as “serious adverse events that occurred during and after the treatment including erythema, edema, and sensations of pain, burning and itching”.
